# Like-named read-outs stand apart in the source and are kept apart here.
# Assays:
# in vitro = conditions: human, uninfected (mock-infected) CEM-SS cells
# HIV-1RF in CEM-SS cells [1] = tested on: HIV-1RF in CEM-SS cells
# HIV-1RF in CEM-SS cells [2] = assay: microbe, parasite or virus in culture; conditions: Human immunodeficiency virus 1, CEM-SS, read-out: EC50 (μM), 50% inhibitory concentration for cytopathicity
# HIV-1RF in CEM-SS cells [3] = conditions: reported previously; cited from earlier work
# HIV-1 NL4-3, RT V106A = format: cell-based
# HIV-1 NL4-3, RT K101E = format: cell-based
# HIV-1 NL4-3, RT V108I = format: cell-based
# HIV-1 NL4-3, RT L74V = format: cell-based
# HIV-1 Ba-L in Mono/Mac = assay: microbe, parasite or virus in culture; format: cell-based; conditions: Human immunodeficiency virus 1, BAL
# HIV-1 Clade B in PBMC = assay: microbe, parasite or virus in culture; format: cell-based; conditions: Human immunodeficiency virus 1, PBMC
# HIV-1 ROJO in PBMC = assay: microbe, parasite or virus in culture; format: cell-based; conditions: Human immunodeficiency virus 1, PBMC
# HIV-1 IIIB Wild Type = assay: microbe, parasite or virus in culture; format: cell-based; conditions: Human immunodeficiency virus 1, IIIB
# HIV-1 Clade C in PBMC = assay: microbe, parasite or virus in culture; format: cell-based; conditions: Human immunodeficiency virus 1, PBMC
# HIV-1 Clade A in PBMC = assay: microbe, parasite or virus in culture; format: cell-based; conditions: Human immunodeficiency virus 1, PBMC
# HIV-1 NL4-3 Wildtype = assay: microbe, parasite or virus in culture; format: cell-based; conditions: Human immunodeficiency virus 1, NL43, CEM-SS
# HIV-I Clade F in PBMC = assay: microbe, parasite or virus in culture; format: cell-based; conditions: Human immunodeficiency virus 1, PBMC
# 3TC isolate, RT M184I = format: cell-based
# HIV-1 IIIB in CEM-SS = assay: microbe, parasite or virus in culture; format: cell-based; conditions: Human immunodeficiency virus 1, IIIB
# HIV-1 Clade D in PBMC = assay: microbe, parasite or virus in culture; format: cell-based; conditions: Human immunodeficiency virus 1, PBMC
# [4] = tested on: 129/Cost isolate, RT K103N; format: cell-based, HIV-1
# HIV-1 NL4-3, RT A98G = format: cell-based
# HIV-1 Clade E in PBMC = assay: microbe, parasite or virus in culture; format: cell-based; conditions: Human immunodeficiency virus 1, PBMC
# HIV-1 TEKI in PBMC = assay: microbe, parasite or virus in culture; format: cell-based; conditions: Human immunodeficiency virus 1, PBMC
# HIV-1 RF in CEM-SS = assay: microbe, parasite or virus in culture; format: cell-based; conditions: Human immunodeficiency virus 1, CEM-SS
# HIV-1 NL4-3, RT Y188C = format: cell-based
structure (smiles),measurement,setting,value
"COC(=O)c1cc(C(=CCCO)c2cc(Cl)c(OC)c(C(=O)OC)c2)cc(Cl)c1OC [Compound 18, 3′,3″-Dichloro-4-hydroxy-4′,4″dimethoxy-5′,5″-bis(methoxycarbony)-1,1-diphenyl-1-butene]",CC50,in vitro,16.8 µM
same,"TI, therapeutic index (CC50 divided by EC50)","HIV-1RF in CEM-SS cells [1]; HIV-1RF, CEM-SS cells",2
same,EC50,HIV-1RF in CEM-SS cells [2],8.6 µM
"COC(=O)c1cc(C(=CCCOS(C)(=O)=O)c2cc(Cl)c(OC)c(C(=O)OC)c2)cc(Cl)c1OC [Compound 19, 3′,3″-Dichloro-4-methanesulfonyloxy-4′,4″dimethoxy-5′,5′-bis(methoxycarbony)-1,1-diphenyl-1-butene]",CC50,in vitro,6.9 µM
same,EC50,HIV-1RF in CEM-SS cells [2],> 6.9 µM
"CCCCCC1OC1(c1cc(Br)c(OC)c(C(=O)OC)c1)c1cc(Br)c(OC)c(C(=O)OC)c1 (centres unmarked) [Compound 12, 3′,3″-Dibromo-4′,4″-dimethoxy-5′,5″-bis(methoxycarbonyl)-1,1,-diphenyl-1-heptene Epoxide]",CC50,in vitro,> 100 µM
same,EC50,HIV-1RF in CEM-SS cells [2],> 6.9 µM
CC1(C)OC(=O)c2cc(C(=CCCO)c3cc(Cl)c4c(c3)C(=O)OC(C)(C)O4)cc(Cl)c2O1 [Compound 30],CC50,in vitro,18.8 µM
same,inhibition of HIV-1 cytopathic effect (in words),HIV-1RF in CEM-SS cells [1]; HIV-1RF in CEM-SS cells,inactive
same,EC50,HIV-1RF in CEM-SS cells [2],> 6.9 µM
"CC1(C)OC(=O)c2cc(C(=CCCBr)c3cc(Cl)c4c(c3)C(=O)OC(C)(C)O4)cc(Cl)c2O1 [Compound 31, 1-Bromo-4,4-bis(8′,8″-dichloro-2′,2′,2″,2″-tetramethyl-4′,4″-dioxo-6′,6″-0(1,3-benzodioxyl)]-3-butene]",CC50,in vitro,176 µM
same,inhibition of HIV-1 cytopathic effect (in words),HIV-1RF in CEM-SS cells [1]; HIV-1RF in CEM-SS cells,inactive
same,EC50,HIV-1RF in CEM-SS cells [2],> 6.9 µM
"CC=C(c1cc(Br)c(OC)c(C(=O)OC)c1)c1cc(Br)c(OC)c(C(=O)OC)c1 [Compound 4, 3′,3″-Dibromo-4′,4″-dimethoxy-5′,5″-bis(methoxycarbonyl)-1,1-diphenylpropene]",CC50,in vitro,10 µM
same,EC50,HIV-1RF in CEM-SS cells [2],> 6.9 µM
"COC(=O)c1cc(C(=CCCO)c2cc(Br)c(OC)c(C(=O)OC)c2)cc(Br)c1OC [Compound 7, 3′,3″-Dibromo-4-hydroxy-4′,4″dimethoxy-5′,5″-bis(methoxycarbony)-1,1-diphenyl-1-butene]",CC50,in vitro,> 316 µM
same,"TI, therapeutic index (CC50 divided by EC50)","HIV-1RF in CEM-SS cells [1]; HIV-1RF, CEM-SS cells",>52
same,EC50,HIV-1RF in CEM-SS cells [2],6 µM
"COc1c(Cl)cc(C(=CCC(=O)O)c2cc(Cl)c(OC)c(C(=O)O)c2)cc1C(=O)O [Compound 23, 3′,3″-Dichloro-4′,4″-dimethoxy-5′,5″-bis(carboxy)-4,4-diphenyl-3-butenoic Acid]",CC50,in vitro,> 316 µM
same,EC50,HIV-1RF in CEM-SS cells [2],> 6.9 µM
"COC(=O)c1cc(C(=CCCN)c2cc(Cl)c(OC)c(C(=O)OC)c2)cc(Cl)c1OC [Compound 21, 4-Amino-3′,3″-Dichloro-4′,4″dimethoxy-5′,5″-bis(methoxycarbony)-1,1-diphenyl-1-butene]",CC50,in vitro,15 µM
same,inhibition of HIV-1 cytopathic effect (in words),HIV-1RF in CEM-SS cells [1]; HIV-1RF in CEM-SS cells,no detectable inhibitory cytopathic effect was detected
same,inhibition of HIV-1 cytopathic effect (in words),HIV-1RF in CEM-SS cells [1]; at 100 μM,inactive
same,EC50,HIV-1RF in CEM-SS cells [2],> 6.9 µM
"COC(=O)c1cc(C(=CC(=O)O)c2cc(Cl)c(OC)c(C(=O)OC)c2)cc(Cl)c1OC [Compound 14, 3′,3″-Dichloro-4′,4″-dimethoxy-5′,5″-bis(methoxycarbonyl)-3,3-diphenylpropenoic Acid]",CC50,in vitro,48 µM
same,EC50,HIV-1RF in CEM-SS cells [2],> 6.9 µM
"COC(=O)c1cc(C(=CCCN=[N+]=[N-])c2cc(Br)c(OC)c(C(=O)OC)c2)cc(Br)c1OC [Compound 9, 4-Azido-3′,3″-Dibromo-4′,4″dimethoxy-5′,5″-bis(methoxycarbony)-1,1-diphenyl-1-butene]",CC50,in vitro,> 316 µM
same,"TI, therapeutic index (CC50 divided by EC50)","HIV-1RF in CEM-SS cells [1]; HIV-1RF, CEM-SS cells",>278
same,EC50,HIV-1RF in CEM-SS cells [2],1.1 µM
"COC=C(c1cc(Br)c(OC)c(C(=O)OC)c1)c1cc(Br)c(OC)c(C(=O)OC)c1 [Compound 5, 3′,3″-Dibromo-4′,4″-dimethoxy-5′,5″-bis(methoxycarbonyl)-1-methoxy-2,2-diphenylethene]",CC50,in vitro,22 µM
same,EC50,HIV-1RF in CEM-SS cells [2],> 6.9 µM
"C=C(c1cc(Br)c(OC)c(C(=O)OC)c1)c1cc(Br)c(OC)c(C(=O)OC)c1 [Compound 3, 3′,3″-Dibromo-4′,4″-dimethoxy-5′,5″-bis(methoxycarbonyl)-1,1-diphenylethene]",melting point,,144 to 145 °C
same,CC50,in vitro,316 µM
same,EC50,HIV-1RF in CEM-SS cells [2],> 6.9 µM
CCCCCC=C(c1cc(Cl)c(OC)c(C(=O)OC)c1)c1cc(Cl)c(OC)c(C(=O)OC)c1 [Compound 41],potency relative to 1,HIV-1RF in CEM-SS cells [3],approximately half as potent as 1
"CCCCCC=C(c1ccc(OC)c(C(=O)OC)c1)c1ccc(OC)c(C(=O)OC)c1 [Compound 36, 4′,4″-Dimethoxy-3′,3″-bis(methoxycarbonyl)-1,1-diphenyl-1-heptene]",CC50,in vitro,14 µM
same,EC50,HIV-1RF in CEM-SS cells [2],> 6.9 µM
"COC(=O)CCCC=C(c1cc(Cl)c(OC)c(C(=O)OC)c1)c1cc(Cl)c(OC)c(C(=O)OC)c1 [Compound 22, Methyl 3′,3″-Dichloro-4′,4″-dimethoxy-5,5″-bis(methoxycarbonyl)-6,6-diphenylhexenoate]",EC50,"HIV-1 NL4-3, RT V106A",12.7 µM
same,EC50,"HIV-1 NL4-3, RT K101E",3.05 µM
same,EC50,"HIV-1 NL4-3, RT V108I",12 µM
same,EC50,"HIV-1 NL4-3, RT L74V",2.23 µM
same,EC50,HIV-1 Ba-L in Mono/Mac,0.36 µM
same,EC50,HIV-1 Clade B in PBMC,0.43 µM
same,EC50,HIV-1 ROJO in PBMC,2.28 µM
same,EC50,HIV-1 IIIB Wild Type,0.39 µM
same,EC50,HIV-1 Clade C in PBMC,1.04 µM
same,EC50,HIV-1 Clade A in PBMC,1.09 µM
same,EC50,HIV-1 NL4-3 Wildtype,1.78 µM
same,EC50,HIV-I Clade F in PBMC,1.7 µM
same,EC50,"3TC isolate, RT M184I",1.08 µM
same,EC50,HIV-1 IIIB in CEM-SS,0.16 µM
same,CC50,in vitro,31.6 µM
same,EC50,HIV-1 Clade D in PBMC,1.02 µM
same,EC50,[4],10.8 µM
same,EC50,"HIV-1 NL4-3, RT A98G",0.84 µM
same,EC50,HIV-1 Clade E in PBMC,0.4 µM
same,EC50,HIV-1 TEKI in PBMC,2.2 µM
same,EC50,HIV-1 RF in CEM-SS,0.91 µM
same,EC50,HIV-1RF in CEM-SS cells [2],0.013 µM
same,EC50,"HIV-1 NL4-3, RT Y188C",10.8 µM
"COC(=O)c1cc(C(=CC(=O)OC(C)(C)C)c2cc(Cl)c(OC)c(C(=O)OC)c2)cc(Cl)c1OC [Compound 16, tert-Butyl 3′,3″-Dichloro-4′,4″-dimethoxy-5,5″-bis(methoxycarbonyl)3,3-diphenylpropenoate]",CC50,in vitro,> 100 µM
same,EC50,HIV-1RF in CEM-SS cells [2],> 6.9 µM
"COC(=O)C=C(c1cc(Cl)c(OC)c(C(=O)OC)c1)c1cc(Cl)c(OC)c(C(=O)OC)c1 [Compound 15, Methyl 3′,3″-Dichloro-4′,4″-dimethoxy-5,5Δ-bis(methoxycarbonyl)-3,3-diphenylpropenoate]",CC50,in vitro,25 µM
same,EC50,HIV-1RF in CEM-SS cells [2],> 6.9 µM
"CCCCCC=C(c1cc(I)c(OC)c(C(=O)OC)c1)c1cc(I)c(OC)c(C(=O)OC)c1 [Compound 40, 3′,3″-Diiodo-4′,4″-Dimethoxy-5′,5″-bis(methoxycarbonyl)-1,1-diphenyl-1-heptene]",CC50,in vitro,> 316 µM
same,inhibition of HIV-1 cytopathic effect (in words),HIV-1RF in CEM-SS cells [1]; HIV-1RF in CEM-SS cells,inactivity
same,EC50,HIV-1RF in CEM-SS cells [2],> 6.9 µM
"COC(=O)c1cc(C(=CCCN=[N+]=[N-])c2cc(Cl)c(OC)c(C(=O)OC)c2)cc(Cl)c1OC [Compound 20, 4-Azido-3′,3″-Dichloro-4′,4″dimethoxy-5′,5′-bis(methoxycarbony)-1,1-diphenyl-1-butene]",CC50,in vitro,41.8 µM
same,"TI, therapeutic index (CC50 divided by EC50)",HIV-1RF in CEM-SS cells [1],155
same,potency relative to the bromo azide 9,HIV-1RF in CEM-SS cells [1]; inhibition of viral cytopathicity,four times more potent
same,EC50,HIV-1RF in CEM-SS cells [2],0.27 µM
